Experimental data: patent US9499493B2, “2,4-pyrimidinediamine compounds and their uses” (Rigel Pharmaceuticals, Inc., priority 2002, dated 2016)
Structures can show the parent of a compound that is named as a salt.

Experiments:
[1] = test system: cultured human mast cells (CHMC); test: CHMC low cell density IgE activation: tryptase assay; type: cell-based; conditions: anti-IgE
Method in brief: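 Cultured human mast cells (1000-1500 cells/well, donor-dependent) equilibrated 1 hr at 37° C, then stimulated with anti-IgE for 30 min at 37° C. Tryptase released into the supernatant is measured with a fluorogenic tryptase substrate after 30 min at room temperature.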

[2] = test system: cultured human mast cells (CHMC); test: CHMC low cell density ionomycin activation: tryptase assay; type: cell-based

IC50 [1] [µM]	IC50 [2] [µM]	SMILES	further results
0.406	> 10	O=C(CNc1cccc(Nc2ncc(F)c(Nc3ccc4c(c3)OCCO4)n2)c1)NCCNCc1ccccc1 [R950198, N2-[3-(N-Benzylamino)ethyleneaminocarbonylmethyleneaminophenyl]-N4-(3,4-ethylenedioxyphenyl)-5-fluoro-2,4-pyrimidinediamine]	–
0.408	> 10	O=C(CNc1cccc(Nc2ncc(F)c(Nc3ccc4c(c3)OCCO4)n2)c1)N(CCO)CCO [R950199, N2-[3-(N,N′-Bis(2-N-hydroxyethyl)amino)carbonylmethyleneaminophenyl]-N4-(3,4-ethylenedioxyphenyl)-5-fluoro-2,4-pyrimidinediamine]	–
0.245	> 10	O=C(CNc1cccc(Nc2ncc(F)c(Nc3ccc4c(c3)OCCO4)n2)c1)NCCN1CCOCC1 [R950200, N4-(3,4-Ethylenedioxyphenyl)-5-fluoro-N2-[3-(N-2-morpholinoethyleneamino)carbonylmethyleneaminophenyl]-2,4-pyrimidinediamine]	–
0.261	> 10	CSc1nc2ccc(Nc3ncc(F)c(Nc4ccc5c(c4)OCCO5)n3)cc2s1 [R950201, N4-(3,4-Ethylenedioxyphenyl)-5-fluoro-N2-[2-(methylthio)-1,3-benzothiaz-6-yl]-2,4-pyrimidinediamine]	–
4.09	> 10	O=C(CNc1cccc(Nc2ncc(F)c(Nc3cccc(NCCO)c3)n2)c1)NCCNCc1ccccc1 [R950235, N2-[3-[N-(2-N-Benzylamino)ethylamino]carbonylmethyleneaminophenyl]-5-fluoro-N4-[3-(2-hydroxyethylamino)phenyl]-2,4-pyrimidinediamine]	–
0.955	> 10	O=C(CNc1cccc(Nc2ncc(F)c(Nc3cccc(NCCO)c3)n2)c1)N1CCOCC1 [R950236, 5-Fluoro-N4-[3-(2-hydroxyethylamino)phenyl]-N2-[3-(N-morpholino)carbonylmethyleneaminophenyl]-2,4-pyrimidinediamine]	–
> 10	> 10	CN(C)CCCNC(=O)CNc1cccc(Nc2ncc(F)c(Nc3cccc(NCCO)c3)n2)c1 [R950237, N2-[3-(3-N,N-Dimethylaminopropyl)aminocarbonylmethyleneaminophenyl]-5-fluoro-N4-[3-(2-hydroxyethylamino)phenyl]-2,4-pyrimidinediamine]	–
2.06	> 10	O=C(CNc1cccc(Nc2ncc(F)c(Nc3cccc(NCCO)c3)n2)c1)NCCN1CCOCC1 [R950239, 5-Fluoro-N4-[3-(2-hydroxyethylamino)phenyl]-N2-[3-(N-morpholinoethyleneamino)carbonylmethyleneaminophenyl]-2,4-pyrimidinediamine]	–
3.27	> 10	O=C(CNc1cccc(Nc2ncc(F)c(Nc3cccc(NCCO)c3)n2)c1)N1CCNCC1 [R950241, N4-[3-(2-Hydroxyethyleamino)phenyl]-N2-[3-(N-piperazino)-carbonylmethyleneaminophenyl]-5-fluoro-2,4-pyrimidinediamine]	–
0.697	> 10	O=[N+]([O-])c1cccc(Nc2nc(Nc3ccc4c(c3)NCCO4)ncc2F)c1 [R950253]	–
0.18	> 10	CNC(=O)COc1cccc(Nc2ncc(F)c(Nc3cccc(NC)c3)n2)c1 [R950267, N4-(3-N-Methylaminophenyl)-5-fluoro-N2-[3-(N-methylamino)carbonylmethyleneoxyphenyl]-2,4-pyrimidinediamine]	–
> 10	> 10	CCOC(=O)COc1cccc(Nc2ncc(F)c(Nc3ccc(O)c(C(=O)O)c3)n2)c1 [R950290, N4-(3-Carboxy-4-hydroxyphenyl)-5-fluoro-N2-[3-ethoxycarbonylmethyleneoxyphenyl]-2,4-pyrimidinediamine]	–
> 10	> 10	O=C(O)COc1cccc(Nc2ncc(F)c(Nc3ccc(O)c(C(=O)O)c3)n2)c1 [R950291, N4-(3-Carboxy-4-hydroxyphenyl)-5-fluoro-N2-[3-carboxymethyleneoxyphenyl]-2,4-pyrimidinediamine]	–
2.04	8.79	COC(=O)COc1cccc(Nc2ncc(F)c(Nc3ccc4c(c3)C(OC)CCO4)n2)c1 (stereo not drawn) [R950295, N4-(4-Methoxy-3,4-dihydro-2H-1-benzopyran-6-yl)-5-fluoro-N2-[3-methoxycarbonylmethyleneoxyphenyl]-2,4-pyrimidinediamine]	–
0.495	> 10	CCOC1CCOc2ccc(Nc3nc(Nc4cccc(OCC(=O)NC)c4)ncc3F)cc21 (stereo not drawn) [R950296, N4-(4-Ethoxy-3,4-dihydro-2H-1-benzopyran-6-yl)-5-fluoro-N2-[3-(N-methylamino)carbonylmethyleneoxyphenyl]-2,4-pyrimidinediamine]	–

The remaining lines, values behind:

SMILES	IC50 [1] [µM]	IC50 [2] [µM]	further results
O=C(CNc1cccc(Nc2ncc(F)c(Nc3ccc4c(c3)OCCO4)n2)c1)N1CCNCC1 [R950197, N4-(3,4-Ethylenedioxyphenyl)-5-fluoro-N2-[3-(N-piperazino)carbonylmethyleneaminophenyl]-5-fluoro-2,4-pyrimidinediamine]	0.531	> 10	–
CSc1nc2ccc(Nc3ncc(F)c(Nc4ccc5nc(SC)sc5c4)n3)cc2s1 [R950202, N2,N4-Bis[2-(methylthio)-1,3-benzothiaz-6-yl]-5-fluoro-2,4-pyrimidinediamine]	3.22	> 10	–
OCCNc1cccc(Nc2ncc(F)c(Nc3ccc4c(c3)OCCO4)n2)c1 [R950208, N4-(3,4-Ethylenedioxyphenyl)-5-fluoro-N2-[3-(hydroxyethyleneamino)phenyl]-2,4-pyrimidinediamine]	0.267	> 10	–
CCOC(=O)CNc1cccc(Nc2ncc(F)c(Nc3cccc(O)c3)n2)c1 [R950215, N2-(Ethoxycarbonylmethyleneaminophenyl)-5-fluoro-N4-(3-hydroxyphenyl)-2,4-pyrimidinediamine]	0.409	> 10	–
CCOC(=O)CNc1cccc(Nc2ncc(F)c(Nc3cccc(O)c3)n2)c1 [R950216]	–	–	IC50 ([1]; Homo sapiens, Mast cell): 0.327 µM; IC50 ([2]; Homo sapiens, Mast cell): > 10 µM
O=C(CNc1cccc(Nc2ncc(F)c(Nc3cccc(O)c3)n2)c1)N1CCOCC1 [R950221, 5-Fluoro-N4-(3-hydroxyphenyl)-N2-[3-(N-morpholino)carbonylmethyleneaminophenyl]-2,4-pyrimidinediamine]	0.636	> 10	–
O=C(CNc1cccc(Nc2ncc(F)c(Nc3cccc(O)c3)n2)c1)N1CCNCC1 [R950222, 5-Fluoro-N4-(3-hydroxyphenyl)-N2-[3-(N-piperazino)carbonylmethyleneaminophenyl]-2,4-pyrimidinediamine]	0.865	> 10	–
CN1CCN(C(=O)CNc2cccc(Nc3ncc(F)c(Nc4cccc(O)c4)n3)c2)CC1 [R950223, 5-Fluoro-N4-(3-hydroxyphenyl)-N2-[3-[N—(N-methyl)piperazino]carbonylmethyleneaminophenyl]-2,4-pyrimidinediamine]	0.763	> 10	–
O=C(CNc1cccc(Nc2ncc(F)c(Nc3cccc(O)c3)n2)c1)NCCN1CCOCC1 [R950226]	1.37	> 10	–
CCOC(=O)CNc1cccc(Nc2ncc(F)c(Nc3cccc(NCCO)c3)n2)c1 [R950229, N2-(Ethoxycarbonylmethyleneaminophenyl)-5-fluoro-N4-[3-(2-hydroxyethylamino)phenyl]-2,4-pyrimidinediamine]	0.98	> 10	–
O=C(CNc1cccc(Nc2ncc(F)c(Nc3cccc(NCCO)c3)n2)c1)NCCO [R950231, 5-Fluoro-N4-[3-(2-hydroxyethylamino)phenyl]-N2-[3-[N-(2-hydroxyethylamino)]carbonylmethyleneaminophenyl]-2,4-pyrimidinediamine]	1.97	> 10	–
CNCCNC(=O)CNc1cccc(Nc2ncc(F)c(Nc3cccc(NCCO)c3)n2)c1 [R950234, 5-Fluoro-N4-[3-(2-hydroxyethylamino)phenyl]-N2-[3-[N-(2-methylamino)ethylamino]carbonylmethyleneaminophenyl]-2,4-pyrimidinediamine]	10	> 10	–
CN1CCN(C(=O)CNc2cccc(Nc3ncc(F)c(Nc4cccc(NCCO)c4)n3)c2)CC1 [R950240, N4-[3-(2-Hydroxyethyleamino)phenyl]-N2-[3-(N—(N-methyl)-piperazino)carbonylmethyleneaminophenyl]-5-fluoro-2,4-pyrimidinediamine]	1.77	> 10	–
CNC(=O)COc1cccc(Nc2ncc(F)c(Nc3cccc(N)c3)n2)c1 [R950262, N4-(3-Aminophenyl)-5-fluoro-N2-[3-(N-methylamino)carbonylmethyleneoxyphenyl]-2,4-pyrimidinediamine HCl salt]	–	–	IC50 ([1]; HCl salt): 0.285 µM; IC50 ([2]; HCl salt): > 10 µM
CNC(=O)COc1cccc(Nc2ncc(F)c(Nc3cccc(N)c3)n2)c1 [R950263, N4-(3-Aminophenyl)-5-fluoro-N2-[3-(N-methylamino)carbonylmethyleneoxyphenyl]-2,4-pyrimidinediamine]	0.284	3.3	–
CNC(=O)COc1cccc(Nc2ncc(F)c(Nc3cccc(N(C)C)c3)n2)c1 [R950264, N4-(3-Bis-N-methylaminophenyl)-5-fluoro-N2-[3-(N-methylamino)carbonylmethyleneoxyphenyl]-2,4-pyrimidinediamine]	0.198	> 10	–
CCOC(=O)COc1cccc(Nc2ncc(F)c(Nc3ccc(O)c(C(=O)OC)c3)n2)c1 [R950293, N4-(3-Methoxycarbonyl-4-hydroxyphenyl)-5-fluoro-N2-[3-ethoxycarbonylmethyleneoxyphenyl]-2,4-pyrimidinediamine]	3.69	8.15	–
CCOC(=O)COc1cccc(Nc2ncc(F)c(Nc3ccc4c(c3)C(OC)CCO4)n2)c1 (stereo not drawn) [R950294, N4-(4-Methoxy-3,4-dihydro-2H-1-benzopyran-6-yl)-5-fluoro-N2-[3-ethoxycarbonylmethyleneoxyphenyl]-2,4-pyrimidinediamine]	2	8.01	–
